This is an account of results in patent US7238701B2, “Substituted tetrahydrobenzothienopyrimidinamine compounds useful for treating hyper-proliferative disorders” (Bayer Pharmaceuticals Corporation, priority 2003, dated 2007).

pIC50: −log10 of the molar value. Where only a bound is given, the exact number is not on record here.

Assay [1] concerns BT474 (human breast carcinoma). The assay can be described thus: In vitro tumor cell proliferation assay (Cell Titer-Glo luminescent cell viability), BT474 cells. It is filed as cell-based. As to conditions: BT-474, 72 hours drug exposure, 10% Fetal Bovine Serum, ATP luminescence readout, read-out: IC50 (50% inhibition of cell proliferation). Put shortly: (§1)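 ATP luminescence (CellTiter-Glo) measured proliferation after 72 h compound exposure at 37 °C, giving IC50 values. Serial dilutions spanning 64 pM–100 μM in 0.1% DMSO were applied one day after plating 2.5×10^3 cells/well in RPMI plus 10% fetal bovine serum.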
In general terms: ATP-based viability assays read luminescence as a measure of living cells.

Assay [2] deals with A431cells (human epidermoid carcinoma). The assay is described as follows: In vitro tumor cell proliferation assay (Cell Titer-Glo luminescent cell viability), A431 cells. As to conditions: A-431, 72 h, 72 hours drug exposure, 10% Fetal Bovine Serum, ATP luminescence readout, read-out: IC50 (50% inhibition of cell proliferation). Type of assay: cell-based. The gist of the method:
as §1

Regarding `CCOC(=O)CC1CCc2c(sc3ncnc(Nc4ccc(OCc5ccc(F)cc5)c(Cl)c4)c23)C1` (stereo not shown) [Example 143, ethyl [4-({3-chloro-4-[(4-fluorobenzyl)oxy]phenyl}amino)-5,6,7,8-tetrahydro[1]benzothieno[2,3-d]pyrimidin-7-yl]acetate], the pIC50 in assay [1] is above 5.30; in assay [2], above 4.30.

With `CS(=O)(=O)CCNCCC1CCc2c(sc3ncnc(Nc4ccc5c(cnn5Cc5ccccc5)c4)c23)C1` (stereo not shown) [Example 210, N-(1-benzyl-1H-indazol-5-yl)-7-(2-{[2-(methylsulfonyl)ethyl]amino}ethyl)-5,6,7,8-tetrahydro[1]benzothieno[2,3-d]pyrimidin-4-amine], the pIC50 in assay [1] and in assay [2] was above 5.30 in each case.

For `Clc1cc(Nc2ncnc3sc4c(c23)CCC(CCn2ccnc2)C4)ccc1OCc1ccccn1` (stereo not shown) [Example 182, N-[3-chloro-4-(pyridin-2-ylmethoxy)phenyl]-7-[2-(1H-imidazol-1-yl)ethyl]-5,6,7,8-tetrahydro[1]benzothieno[2,3-d]pyrimidin-4-amine], the figures for the pIC50 in assay [1] and in assay [2] were above 5.30 and above 4.30, respectively.

`Fc1cccc(COc2ccc(Nc3ncnc4sc5c(c34)CCC(CCN3CCCCC3)C5)cc2Cl)c1` (stereo not shown) [Example 167, N-{3-chloro-4-[(3-fluorobenzyl)oxy]phenyl}-7-(2-piperidin-1-ylethyl)-5,6,7,8-tetrahydro[1]benzothieno[2,3-d]pyrimidin-4-amine]: the pIC50 in assay [1] and in assay [2] was above 5.30 throughout.

On to `Cc1ccc(Oc2ccc(Nc3ncnc4sc5c(c34)CCC(CCO)C5)cc2C)cn1` (stereo not shown) [Example 214, 2-{4-[3-Methyl-4-(6-methyl-pyridin-3-yloxy)-phenylamino]-5,6,7,8-tetrahydro-benzo[4,5]thieno[2,3-d]pyrimidin-7-yl}-ethanol], for which the pIC50 in assay [1] was above 5.30; in assay [2], above 4.30.

With `CN1CCN(CCC2CCc3c(sc4ncnc(Nc5ccc(F)c(Cl)c5)c34)C2)CC1` (stereo not shown) [Example 59, N-(3-chloro-4-fluorophenyl)-7-[2-(4-methyl-1-piperazinyl)ethyl]-5,6,7,8-tetrahydro[1]benzothieno[2,3-d]pyrimidin-4-amine], the pIC50 in assay [1] and in assay [2] was above 5.30 each time.

`CN(C)[C@H]1CCN(CCC2CCc3c(sc4ncnc(Nc5ccc(OCc6ccc(F)cc6)c(Cl)c5)c34)C2)C1` (stereo partly drawn) [Example 157, N-{3-chloro-4-[(4-fluorobenzyl)oxy]phenyl}-7-{2-[(3S)-3-(dimethylamino)pyrrolidin-1-yl]ethyl}-5,6,7,8-tetrahydro[1]benzothieno[2,3-d]pyrimidin-4-amine]: the pIC50 in assay [1] and in assay [2] was above 5.30 in each case.

Turning to `Fc1ccc(Nc2ncnc3sc4c(c23)CCC(CN2CCCCC2)C4)cc1Cl` (stereo not shown) [Example 4, N-(3-chloro-4-fluorophenyl)-7-(1-piperidinylmethyl)-5,6,7,8-tetrahydro[1]benzothieno[2,3-d]pyrimidin-4-amine], the pIC50 in assay [1] and in assay [2] was above 5.30 each time.

Regarding `Cc1ccc(Oc2ccc(Nc3ncnc4sc5c(c34)CCC(CCN3C(C)CCC3C)C5)cc2C)cn1` (stereo not shown) [Example 235], the pIC50 was above 5.30 in assay [1] and above 4.30 in assay [2].

On to `Fc1cccc(COc2ccc(Nc3ncnc4sc5c(c34)CCC(CCN3CCCC3)C5)cc2Cl)c1` (stereo not shown) [Example 161, N-{3-chloro-4-[(3-fluorobenzyl)oxy]phenyl}-7-(2-pyrrolidin-1-ylethyl)-5,6,7,8-tetrahydro[1]benzothieno[2,3-d]pyrimidin-4-amine], for which the pIC50 in assay [1] and in assay [2] was above 5.30 in each case.

In the case of `O[C@H]1CCN(CCC2CCc3c(sc4ncnc(Nc5ccc(OCc6cccc(F)c6)c(Cl)c5)c34)C2)C1` (stereo partly drawn) [Example 186, (3S)-1-{2-[4-({3-chloro-4-[(3-fluorobenzyl)oxy]phenyl}amino)-5,6,7,8-tetrahydro[1]benzothieno[2,3-d]pyrimidin-7-yl]ethyl}pyrrolidin-3-ol], the pIC50 in assay [1] and in assay [2] was above 5.30 throughout.
